Measured values reported in patent US7220822B2, “CD28 mimetics for blocking T cell mediated immune reactions” (The Ohio State University, priority 2000, dated 2007).
“Also recorded” adds a separate entry of the source. Square brackets hold non-standard residues; d marks the D form. Peptide text beside a SMILES is read from it.

Legend:
[1] = system: B10.PL mice with EAE; assay: EAE in B10.PL mice immunized with GP-MBP in CFA, clinical score; type: in vivo, mouse; conditions: for clinical course (in words): single i.v. 500 μg on day 14 post-immunization, observed 26 days
Procedure: Female B10.PL mice (6–8 wk old) were obtained from The Jackson laboratory (Bar Harbor, Me.) and housed at the Ohio State University, (Columbus, Ohio).
Mice were injected subcutaneously over four sites on the flank with an emulsion containing 200 μg of guinea-pig-MBP in CFA containing 200 μg heat killed Mycobacterium tuberculosis, Jamaica strain. Pertussis toxin (List Biological, Campbell, Calif.) at 150 ng in 0.2 ml of PBS was given intraperitoneally at the time of immunization and 48 hours later. Animals were observed daily for clinical signs and scored as follows: 1, limp tail or waddling gait with tail tonicity; 2, waddling gait with limp tail (ataxia); 2.5 ataxia with partial paralysis of one limb, 3, partial hind-limb paralysis, 3.5 full paralysis of one limb with partial paralysis of the second limb, 4, full paralysis of two limbs, 4.5 moribund and 5, death. All mice immunized with MBP (200 μg) in CFA developed clinical disease varying between ataxia and complete hind limb paralysis by day 14 post-immunization. They were then distributed randomly into six groups with mean clinical score of each group approximately the same.
Groups of mice were left untreated or injected intravenously with 500 μg of EL CD28 or RI CD28 peptide mimetics, or LCD28, RLCD28 and DCD28 peptides. The mean clinical score of untreated mice continued to increase reaching a maximum of 3.4 on day 20. Similarly the disease continued to progress in mice treated with LCD28, RLCD28 and DCD28, reaching mean maximal clinical score of 3.8 (day 18), 3.4 (day 16 ) and 3.7 (day 16) respectively.
The biological activity of synthetic CD28 peptide analogues during antigen priming in vivo in EAE was then shown. B10.PL mice immunized with GP-MBP (200 μg) in CFA were either left untreated or injected intravenously 500 μg of EL CD28 or RI CD28 peptide mimetics or LCD28, RLCD28 and DCD28 peptides on the day of immunization. The vehicle treated mice and mice treated with: LCD28, RL CD28 and D CD28 peptide had maximum disease incidence of 100%, 100%, 91.5% and 91.5% and maximum mean cumulative score per day of 1.9, 1.8, 1.7 and 2 respectively. […] The effect of RI CD28 peptide injection lasted for the duration of observation (37 days) in one experiment.

[2] = system: CD4+ LNC bearing Vα4 Vβ8.2 TCR; assay: IL-2 ELISPOT of antigen-stimulated CD4+ lymph node cells in vitro; type: cell-based, mouse; parameters: frequency of IL-2 secreting cells (in words): dose or concentration left out as unconfirmed; conditions: for number of IL-2 secreting NAc1-11 responders (in words): 75 μM and 100 μM peptide, p<0.05; for frequency of IL-2 secreting cells (in words): compared to untreated cells
Procedure: Augmentation of T cell proliferation following CD28 ligation is a result of its ability to increase the synthesis of IL-2. To determine whether the observed reduction in proliferation is reflected in the IL-2 secretion, the ELISPOT assay was performed.
Ninety-six well unifilter plates (Polyfiltronics, Rockland, Md.) were coated overnight at 4° C. with rat anti-mouse IL-2 (Clone JES6-1A12) (Pharmingen, Calif.) at 4 μg/ml. The plates were then washed 4× with sterile PBS and blocked with 1% BSA in DMEM for 2 h at room temperature. Subsequently, isolated single cell suspensions of CD4+ LNC (5×10^6 cells/ml) and splenocytes (10×10^6 cells/ml) were added with the antigens and CD28 peptides under the conditions as specified for the proliferation assays. After 24 h of culture in the incubator, the cells were removed by washing 3× with PBS and 4× with PBS containing Tween (1:2000) (PBST). Then biotinylated anti mouse-IL-2 (Clone JES6-5H4) (Pharmingen, Calif.) 2 μg/ml was added and incubated at 4° C. overnight. After washing 3× with PBST and 3× with PBS, goat anti-biotin antibody conjugated to alkaline phosphatase (Vector Laboratories Inc, Burlingame, Calif.) diluted to 1:1000 in PBST containing 1% BSA was added and incubated for 2 h at room temperature. The spots were visualized by adding BCIP/NBT phosphatase substrate (Kirkeguard & Perry Laboratories, Gaithesburg, Md.). Image analysis of ELISA spot assays was performed on a Series 1 Immunospot Image Analyzer (Autoimmun Diagnostika (US) Inc.) customized for analyzing ELISA spots to meet objective criteria for size, chromatic density, shape and color.

[3] = system: CD4+ LNC from TCR Vβ 8.2 Vα 4 transgenic mice; assay: Apoptosis (TUNEL, flow cytometry) of antigen-stimulated Vβ8.2+ CD4+ lymph node cells in vitro; type: cell-based, mouse
Procedure: (§1) To investigate whether the observed decrease in proliferative responses following treatment with CD28 peptides is a result of cell loss, cell death was measured by enzymatic in-situ labeling. Apoptotic cells among MBP NAc1-11 stimulated TCR Vβ 8.2+ CD4+ T cells were detected by staining with FITC labeled Tdt (terminal deoxynucleotidyl transferase). Cells incubated in DNAse served as positive control.
(§2) CD4+ T cells from pooled lymph nodes and spleen from B10.PL TCR Vβ 8.2 Vα 4 transgenic mice were cultured in RPMI 1640 in a 96 well round-bottom plate, essentially under the conditions specified for proliferation assays. Cells were harvested at the end of 48 hours and apoptotic cells among TCR Vβ 8.2+ CD4+ T cells were detected by the TUNEL method. Briefly, after washing twice with PBS containing 1-% rat serum, the cells were stained with PE labeled anti-mouseVβ 8.1,8.2 TCR (clone MR5-2) (Pharmingen, San Diego, Calif.) for 30 min at room temperature and washed. Subsequently, the cells were fixed with 4% paraformaldehyde in PBS for 30 min at room temperature. Then the cells were washed and permeabilized with 0.1% Triton X-100 in 0.1% sodium citrate for 2 min at 4° C. After washing, the DNA strand breaks in the cells were detected by incubating the cells with fluorescein labeled TUNEL mix (terminal deoxynucleotidyl transferase (Tdt)) for 60 min at 37° C. using an in situ cell death detection kit (Boehringer Mannheim, Mannheim, Germany) according to the manufacturer's recommendations. As a positive control, cells were incubated in DNAse (1 mg/ml) for 10 minutes at room temperature prior to incubation with TdT. The negative control consisted of cells incubated without TdT. Cells were then washed with PBS and analyzed by flow cytometry.

[4] = system: CD4+Vβ8.2+ spleen cells; assay: Apoptosis (TUNEL, flow cytometry) of antigen-stimulated CD4+Vβ8.2+ spleen cells in vitro; type: cell-based, mouse; conditions: 150 μM peptide, data not shown
Procedure: as §1
as §2, with “Subsequently, the cells were fixed with 4% paraformaldehyde in PBS for 30 min at room temperature. Then the cells were washed and permeabilized with 0.1% Triton X-100 in 0.1% sodium citrate for 2 min at 4° C.” left out, “As a positive control, cells were incubated in DNAse (1 mg/ml) for 10 minutes at room temperature prior to incubation with TdT. The negative control consisted of cells incubated without TdT.” left out

[5] = system: CD4+ lymphocytes of immunized mice; assay: Apoptosis of CD4+ T cells in peptide-treated EAE mice (enzymatic labeling of nicked ends); type: in vivo, mouse; conditions: mice treated on the day of immunization
Procedure: This was done by quantifying the DNA strand breaks in CD4+ lymphocytes detected by enzymatic labeling of nicked ends. Cells incubated in DNAse served as positive control.

[6] = single i.v. 500 μg on the day of immunization
[7] = 150 μM peptide, 48 hr, versus untreated

Structure (SMILES) | clinical course (in words) [1] | maximum disease incidence [1, 6] | maximum mean cumulative score per day [1, 6] | number of IL-2 secreting NAc1-11 responders (in words) [2] | frequency of IL-2 secreting cells (in words) [2] | percentage of apoptotic cells (in words) [3, 7] | percentage of apoptotic cells (in words) ([3]; 150 μM peptide, 48 hr, versus untreated, listed as ELCD28) | apoptosis (in words) [4] | duration of effect of injection ([1]; single i.v. 500 μg on the day of immunization, one experiment, duration of observation) | percentage of apoptotic CD4+ T cells [5] | percentage of apoptotic cells (in words) ([3]; 75 μM peptide, 48 hrs)
CC[C@H](C)[C@H](NC(=O)[C@@H](NC(=O)CNC(=O)[C@H](CC(N)=O)NC(=O)[C@H](CO)NC(=O)[C@H](CCCNC(=N)N)NC(=O)[C@H](CCC(=O)O)NC(=O)[C@H](CC(N)=O)NC(=O)[C@H](CC(=O)O)NC(=O)[C@H](CC(C)C)NC(=O)[C@H](Cc1ccc(O)cc1)NC(=O)[C@@H]1CCCN1C(=O)[C@@H]1CCCN1C(=O)[C@@H]1CCCN1C(=O)[C@H](Cc1ccc(O)cc1)NC(=O)[C@H](CCSC)NC(=O)[C@H](Cc1ccccc1)NC(=O)[C@H](CCC(=O)O)NC(=O)[C@@H](NC(=O)[C@H](CCCCN)NC(C)=O)[C@@H](C)CC)[C@@H](C)O)C(N)=O [EL CD28] (Ac-KIEFMYPPPYLDNERSNGTI-NH2) | continued to show clinical improvement | 70% | 1.1 | Significant decrease | significantly reduced | Significant increase | significantly higher percentage | increase in apoptosis | – | – | –
CC[C@@H](C)[C@@H](NC(C)=O)C(=O)N[C@@H](C(=O)NCC(=O)N[C@H](CC(N)=O)C(=O)N[C@H](CO)C(=O)N[C@H](CCCNC(=N)N)C(=O)N[C@H](CCC(=O)O)C(=O)N[C@H](CC(N)=O)C(=O)N[C@H](CC(=O)O)C(=O)N[C@H](CC(C)C)C(=O)N[C@H](Cc1ccc(O)cc1)C(=O)N1CCC[C@@H]1C(=O)N1CCC[C@@H]1C(=O)N1CCC[C@@H]1C(=O)N[C@H](Cc1ccc(O)cc1)C(=O)N[C@H](CCSC)C(=O)N[C@H](Cc1ccccc1)C(=O)N[C@H](CCC(=O)O)C(=O)N[C@@H](C(=O)N[C@H](CCCCN)C(N)=O)[C@H](C)CC)[C@H](C)O [RI CD28] (Ac-[dI][dT]G[dN][dS][dR][dE][dN][dD][dL][dY][dP][dP][dP][dY][dM][dF][dE][dI][dK]-NH2) | continued to show clinical improvement | 60% | 0.74 | Significant decrease | significantly reduced | significantly higher percentage; also recorded: Significant increase | – | increase in apoptosis | 37 days | 16% | Significant increase
